In patent US20070010446A1, “METHODS FOR TREATING INFLAMMATION USING THYROID STIMULATING HORMONE” (ZymoGenetics, Inc., priority 2003, published 2007):
Blank lines part the entries; values can stand above or below the molecule they belong to.

Assays:
C57BL/6 mice [1] = experiment: LPS-induced mild endotoxemia mouse model, serum cytokines by ELISA; type: in vivo; details: treatment i.p. 1 hour prior, Dex […], TSH 2.0 mg/kg, Thyroxine 0.05 mg/kg; for TNFα (1 hr) +/− S.E.: serum 1 hour after 25 ug LPS i.p., PBS group 6990.8; for IL-6 (4 hr) +/− S.E.: serum 4 hours after 25 ug LPS i.p., PBS group 45.6
Method: The LPS-induced mild endotoxemia model is an in vivo model designed to mimic acute endotoxemia/sepsis by challenging mice with a low, non-lethal dose of bacterial endotoxin (lipopolysaccharide, LPS). Serum is collected at various timepoints (1-72 hours) after intraperitoneal LPS injection and analyzed for altered expression of a wide variety of pro- and anti-inflammatory cytokines and acute phase proteins that mediate the inflammatory response. The model provides a means to assess the potential anti-inflammatory effects of therapeutic candidates during a robust inflammatory response.
In this model, an initial experiment is run to determine the production of proinflammatory cytokines in response to an injection of LPS. For example, six-month old Balb/c (Charles River Laboratories, Wilmington, Mass.) female mice are injected with 25 μg LPS (Sigma) in sterile PBS intraperitoneally (i.p.). Serum samples are collected at 0, 1, 4, 8, 16, 24, 48 and 72 hours later, and are assayed for serum levels of inflammatory mediators, such as IL-1β, IL-6, TNFα, and IL-10. Commercially available ELISA kits (Biosource International, Camarillo, Calif.) can be used to deterime the serum levels. In this assay TNFα levels and IL-1β levels can be measured at 1 hour post-LPS injection, and IL-6, IL-10 and IL-10 can be measured at 4 hours post injection. From these inflammatory mediators, one or more is chosen as a representative biological marker(s) for the LPS model of mild endotoxemia.
Next, C57BL/6 mice (Charles River Laboratories; 5 mice/group) are treated i.p. with PBS, or the test compound in PBS 1 hour prior to LPS challenge. The mice are then challenged with 25 ug of LPS i.p. and are bled at 1 hour and 4 hours after LPS injection. The level of the representative biological marker(s) is analyzed by ELISA.
Thyroxine (0.05 mg/kg) and Dexamethasone (0.015 mg/kg) were run as negative and positive controls, respectively. […] This model can be optimized for dosage and choice of biological markers.

C57BL/6 mice [2] = experiment: Delayed Type Hypersensitivity (DTH), OVA ear challenge; type: in vivo; details: Expt 3 (n = 7), adrenalectomized (ADX) mice; treatment i.p. at challenge (d 7); Dex […], TSH 2.0 mg/kg
thymus = details: mouse, in vivo

Structure (SMILES): N[C@@H](Cc1cc(I)c(Oc2cc(I)c(O)c(I)c2)c(I)c1)C(=O)O [Thyroxine]
TNFα (1 hr) +/− S.E. (C57BL/6 mice [1]): 4289.5 ± 642.3 pg/mL
IL-6 (4 hr) +/− S.E. (C57BL/6 mice [1]): 37.1 ± 0.9 ng/mL

thymic atrophy (in words) (thymus): obvious thymic atrophy
Structure (SMILES): C[C@@H]1C[C@H]2[C@@H]3CCC4=CC(=O)C=C[C@]4(C)[C@@]3(F)[C@@H](O)C[C@]2(C)[C@@]1(O)C(=O)CO [Dex, Dexamethasone]
CHANGE IN EAR THICKNESS, LEFT EAR (PBS) (C57BL/6 mice [2]): 0.07 +/− 0.61 ×10^−3 inch
CHANGE IN EAR THICKNESS, RIGHT EAR (OVA) (C57BL/6 mice [2]): 3.71 +/− 0.64 ×10^−3 inch
TNFα (1 hr) +/− S.E. (C57BL/6 mice [1]): 3798.4 ± 415.7 pg/mL
IL-6 (4 hr) +/− S.E. (C57BL/6 mice [1]): 35.2 ± 2.8 ng/mL
